Legend:
[1] = Compound was evaluated for the selective and competitive inhibition of Alpha-glucosidase from Yeast at 2.5 mM; design: species or system Saccharomyces cerevisiae
[2] = Compound was evaluated for the selective and competitive inhibition of Alpha-glucosidase from Aspergillus niger at 2.5 mM; NI = No inhibition
[3] = Compound was evaluated for the selective and competitive inhibition of Alpha-glucosidase from Bacillus sp. at 2.5 mM; NI = No inhibition
[4] = Compound was evaluated for the selective and competitive inhibition of Beta-glucosidase from Trichoderma viride
[5] = Compound was evaluated for the selective and competitive inhibition of Beta-glucosidase from Almond; design: species or system Prunus dulcis
[6] = Compound was evaluated for the selective and competitive inhibition of Beta-galactosidase from Escherichia coli at 2.5 mM; NI = No inhibition
[7] = Compound was evaluated for the selective and competitive inhibition of Beta-galactosidase from Aspergillus oryzae at 2.5 mM; NI = No inhibition
[8] = Compound was evaluated for the selective and competitive inhibition of Beta-galactosidase from Aspergillus pulverulentus
[9] = Compound was evaluated for the selective and competitive inhibition of beta-glucosidase from Aspergillus niger
[10] = Compound was evaluated for the basicity, pKa of the conjugate acids; format: physicochemical
[11] = Compound was evaluated for the selective and competitive inhibition of Alpha-glucosidase from Yeast; design: species or system Saccharomyces cerevisiae
[12] = Compound was evaluated for the selective and competitive inhibition of Alpha-glucosidase from Aspergillus niger
[13] = Compound was evaluated for the selective and competitive inhibition of Beta-glucosidase from Almond at 2.5 mM; NI = No inhibition; design: species or system Prunus dulcis
[14] = Compound was evaluated for the selective and competitive inhibition of Beta-galactosidase from Escherichia coli
[15] = target: T1, Exo-1,4-beta-xylosidase xlnD (Aspergillus niger, UniProt O00089); assay: Compound was evaluated for the selective and competitive inhibition of beta-xylosidase from A. pulverulentus; NI = No inhibition at 2.5 mM; design: species or system Aspergillus pulverulentus
T1 sequence (O00089 whole entry): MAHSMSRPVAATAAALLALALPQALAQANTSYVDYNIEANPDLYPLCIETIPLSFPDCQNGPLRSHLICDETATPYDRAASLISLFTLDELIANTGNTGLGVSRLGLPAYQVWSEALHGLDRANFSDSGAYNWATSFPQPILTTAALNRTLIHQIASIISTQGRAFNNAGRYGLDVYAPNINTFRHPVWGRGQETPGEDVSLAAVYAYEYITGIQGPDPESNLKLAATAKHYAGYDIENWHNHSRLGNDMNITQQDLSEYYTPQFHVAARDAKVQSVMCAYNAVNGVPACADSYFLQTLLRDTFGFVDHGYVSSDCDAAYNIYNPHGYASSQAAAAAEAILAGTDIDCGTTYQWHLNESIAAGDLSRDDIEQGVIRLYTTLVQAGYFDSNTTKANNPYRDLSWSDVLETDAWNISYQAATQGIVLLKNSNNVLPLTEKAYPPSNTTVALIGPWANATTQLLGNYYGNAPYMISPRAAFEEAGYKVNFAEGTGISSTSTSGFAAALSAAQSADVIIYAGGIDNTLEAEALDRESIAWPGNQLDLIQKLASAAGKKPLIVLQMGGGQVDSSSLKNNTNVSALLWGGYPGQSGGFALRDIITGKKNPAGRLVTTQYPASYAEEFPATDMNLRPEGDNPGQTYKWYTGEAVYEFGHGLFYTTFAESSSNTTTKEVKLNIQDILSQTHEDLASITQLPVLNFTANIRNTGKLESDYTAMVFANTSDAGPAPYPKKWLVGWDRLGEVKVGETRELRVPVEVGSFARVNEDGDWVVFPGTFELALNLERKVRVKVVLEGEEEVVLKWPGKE

[16] = Compound was evaluated for the selective and competitive inhibition of Beta-glucosidase from Aspergillus niger
[17] = Compound was evaluated for the selective and competitive inhibition of Alpha-glucosidase from Bacillus sp.
[18] = Compound was evaluated for the selective and competitive inhibition of Beta-xylosidase from Aspergillus pulverulentus at 2.5 mM; NI = No inhibition
[19] = Compound was evaluated for the selective and competitive inhibition of Alpha-glucosidase from Yeast at 2.5 mM; NI = No inhibition; design: species or system Saccharomyces cerevisiae
[20] = Compound was evaluated for the selective and competitive inhibition of Beta-galactosidase from Aspergillus oryzae
[21] = target: T1, Exo-1,4-beta-xylosidase xlnD; assay: Compound was evaluated for the selective and competitive inhibition of Beta-xylosidase from Aspergillus pulverulentus

Compound	Ki [2]	Ki [3]	Ki [4] [µM]	Ki [5] [µM]	Ki [7]	pKa [10]	Ki [11] [µM]	Ki [12] [µM]	Ki [16] [µM]	Ki [6]	Ki [14] [µM]	also measured
Br.N=C(Cc1ccccc1)NC1OCC(O)C(O)C1O (centres undefined)	Not Active	Not Active	13	1100	Not Active	–	–	–	–	Not Active	–	Ki [1]: No inhibition; Ki [8]: 2.5 µM; Ki [9]: 11 µM
NC1OCC(O)C(O)C1O (centres undefined)	–	–	–	–	–	5.6	–	–	–	–	–	–
O=C(Cc1ccccc1)NC1OC(CO)C(O)C(O)C1O (centres undefined)	–	Not Active	770	–	Not Active	–	> 2500	> 2500	770	–	> 2000	Ki [13]: Not Active; Ki [15]: No inhibition
NC1OC(CO)C(O)C(O)C1O (centres undefined)	–	–	–	–	–	5.6	–	–	–	–	–	–

Further lines, with some results ahead:

Ki [2]	Ki [3]	Ki [4] [µM]	Ki [5] [µM]	Ki [7]	pKa [10]	Ki [11] [µM]	Ki [12] [µM]	Ki [16] [µM]	Compound	Ki [6]	Ki [14] [µM]	also measured
Not Active	–	0.13	73	Not Active	–	21	> 2500	0.094	Br.N=C(Cc1ccccc1)NC1OC(CO)C(O)C(O)C1O (stereo in doubt; 1a)	Not Active	–	Ki [17]: > 2500 µM; Ki [18]: Not Active
–	Not Active	390	41	–	–	–	47	390	Br.N=C(Cc1ccccc1)NC1OC(CO)C(O)C(O)C1O (stereo in doubt; 1b)	–	7.8	Ki [19]: Not Active; Ki [20]: 2.4 µM; Ki [21]: 1000 µM
